According to ChEMBL document CHEMBL3351522, “Discovery of structurally simplified analogs of colchicine as an immunosuppressant” (Bioorg Med Chem Lett, 2014):
Calls of active or inactive are those of the source.

Columns and labels:
Mus musculus [1] = assay: Toxicity in C57BL/6 mouse assessed as induction of body weight loss at 0.1 to 3 mg/kg, iv dosed once daily for 4 days; format: organism-based; set-up: dose 0.1-3 mg/kg, route intravenous; details: in vivo, 96 h
Mus musculus [2] = assay: Intestinal toxicity in C57BL/6 mouse assessed as induction of intestinal dilation at 1 mg/kg, iv dosed once daily for 4 days; format: organism-based; set-up: dose 1 mg/kg, route intravenous; details: in vivo, 96 h
Mus musculus [3] = assay: Toxicity in C57BL/6 mouse assessed as induction of spleen weight loss at 0.1 to 3 mg/kg, iv dosed once daily for 4 days; format: organism-based; set-up: dose 0.1-3 mg/kg, route intravenous; details: in vivo, 96 h
B-cell [4] = assay: Immunosuppressive activity in B cells (unknown origin) assessed as inhibition of LPS-induced cell proliferation at 3 to 30 ng/mL; format: functional, cell-based
T-cell [5] = assay: Immunosuppressive activity in T cells (unknown origin) assessed as inhibition of Con A-induced cell proliferation at 3 to 30 ng/mL; format: functional, cell-based
Mus musculus [6] = assay: Toxicity in female ICR-SPF mouse assessed as autopsy changes at 100 mg/kg, iv administered as single dose measured 14 days post dose; format: organism-based; set-up: dose 100 mg/kg, route intravenous; details: in vivo, 336 h
Mus musculus [7] = assay: Toxicity in female ICR-SPF mouse assessed as induction of body weight changes at 10 mg/kg, iv administered as single dose measured 14 days post dose; format: organism-based; set-up: dose 10 mg/kg, route intravenous; details: in vivo, 336 h
Mus musculus [8] = assay: Toxicity in C57BL/6 mouse assessed as induction of body weight loss at 1 mg/kg, iv dosed once daily for 4 days; format: organism-based; set-up: dose 1 mg/kg, route intravenous; details: in vivo, 96 h
Mus musculus [9] = assay: Immunosuppressive activity in carrageenan-induced paw edema C57BL/6 mouse model assessed as reduction in pLN weight increase dosed after carrageenan challenge; format: functional, organism-based
Mus musculus [10] = assay: Toxicity in male ICR-SPF mouse assessed as induction of body weight changes at 100 mg/kg, iv administered as single dose measured 14 days post dose; format: organism-based; set-up: dose 100 mg/kg, route intravenous; details: in vivo, 336 h
Mus musculus [11] = assay: Immunosuppressive activity in zymosan A-induced arthritis C57BL/6 mouse model assessed as reduction in pLN weight increase dosed after zymosan A challenge; format: functional, organism-based
Mus musculus [12] = assay: Toxicity in male ICR-SPF mouse assessed as mortality incidences at 30 mg/kg, iv administered as single dose measured 14 days post dose; format: organism-based; set-up: dose 30 mg/kg, route intravenous; details: in vivo, 336 h
Mus musculus [13] = assay: Toxicity in male ICR-SPF mouse assessed as autopsy changes at 30 mg/kg, iv administered as single dose measured 14 days post dose; format: organism-based; set-up: dose 30 mg/kg, route intravenous; details: in vivo, 336 h
Mus musculus [14] = assay: Toxicity in female ICR-SPF mouse assessed as autopsy changes at 30 mg/kg, iv administered as single dose measured 14 days post dose; format: organism-based; set-up: dose 30 mg/kg, route intravenous; details: in vivo, 336 h
Mus musculus [15] = assay: Toxicity in male ICR-SPF mouse assessed as autopsy changes at 10 mg/kg, iv administered as single dose measured 14 days post dose; format: organism-based; set-up: dose 10 mg/kg, route intravenous; details: in vivo, 336 h
Macrophage = assay: Inhibition of nitric oxide production in bone marrow-derived macrophages (unknown origin) at 1 to 100 ng/mL; format: functional, cell-based
Mus musculus [16] = assay: Toxicity in female ICR-SPF mouse assessed as autopsy changes at 10 mg/kg, iv administered as single dose measured 14 days post dose; format: organism-based; set-up: dose 10 mg/kg, route intravenous; details: in vivo, 336 h
Mus musculus [17] = assay: Toxicity in iv dosed male ICR-SPF mouse administered as single dose measured 14 days post dose; format: organism-based; details: in vivo, 336 h
Dendritic cell = assay: Inhibition of LPS-induced IL-12 production in bone marrow-derived dendritic cells (unknown origin) at 1 to 100 ng/mL; format: functional, cell-based
T-cell [18] = assay: Immunosuppressive activity in T cells (unknown origin) assessed as inhibition of Con A-induced cell proliferation at 1 to 100 ng/mL; format: functional, cell-based
Mus musculus [19] = assay: Toxicity in male ICR-SPF mouse assessed as induction of body weight changes at 30 mg/kg, iv administered as single dose measured 14 days post dose; format: organism-based; set-up: dose 30 mg/kg, route intravenous; details: in vivo, 336 h
Mus musculus [20] = assay: Toxicity in female ICR-SPF mouse assessed as mortality incidences at 10 mg/kg, iv administered as single dose measured 14 days post dose; format: organism-based; set-up: dose 10 mg/kg, route intravenous; details: in vivo, 336 h
Mus musculus [21] = assay: Toxicity in iv dosed female ICR-SPF mouse administered as single dose measured 14 days post dose; format: organism-based; details: in vivo, 336 h
[22] = Toxicity in LPS-induced bone marrow-derived dendritic cells (unknown origin) assessed as effect on cell viability at 1 to 100 ng/mL; format: cell-based
Mus musculus [23] = assay: Toxicity in female ICR-SPF mouse assessed as induction of body weight changes at 30 mg/kg, iv administered as single dose measured 14 days post dose; format: organism-based; set-up: dose 30 mg/kg, route intravenous; details: in vivo, 336 h
Mus musculus [24] = assay: Toxicity in male ICR-SPF mouse assessed as induction of body weight changes at 10 mg/kg, iv administered as single dose measured 14 days post dose; format: organism-based; set-up: dose 10 mg/kg, route intravenous; details: in vivo, 336 h
Mus musculus [25] = assay: Toxicity in female ICR-SPF mouse assessed as induction of body weight changes at 100 mg/kg, iv administered as single dose measured 14 days post dose; format: organism-based; set-up: dose 100 mg/kg, route intravenous; details: in vivo, 336 h
Mus musculus [26] = assay: Toxicity in male ICR-SPF mouse assessed as autopsy changes at 100 mg/kg, iv administered as single dose measured 14 days post dose; format: organism-based; set-up: dose 100 mg/kg, route intravenous; details: in vivo, 336 h
Mus musculus [27] = assay: Toxicity in female ICR-SPF mouse assessed as mortality incidences at 100 mg/kg, iv administered as single dose measured 14 days post dose; format: organism-based; set-up: dose 100 mg/kg, route intravenous; details: in vivo, 336 h
Mus musculus [28] = assay: Toxicity in male ICR-SPF mouse assessed as mortality incidences at 100 mg/kg, iv administered as single dose measured 14 days post dose; format: organism-based; set-up: dose 100 mg/kg, route intravenous; details: in vivo, 336 h
Mus musculus [29] = organism: Mus musculus; assay: Immunosuppressive activity in SRBC immunized mouse assessed as suppression of B-cell mediated immune response; format: functional, organism-based
RAW264.7 = assay: Inhibition of nitric oxide production in mouse RAW264.7 cells at 1 to 100 ng/mL; format: functional, cell-based
Mus musculus [30] = assay: Toxicity in female ICR-SPF mouse assessed as mortality incidences at 30 mg/kg, iv administered as single dose measured 14 days post dose; format: organism-based; set-up: dose 30 mg/kg, route intravenous; details: in vivo, 336 h
B-cell [31] = assay: Immunosuppressive activity in B cells (unknown origin) assessed as inhibition of LPS-induced cell proliferation at 1 to 100 ng/mL; format: functional, cell-based
Mus musculus [32] = assay: Toxicity in male ICR-SPF mouse assessed as mortality incidences at 10 mg/kg, iv administered as single dose measured 14 days post dose; format: organism-based; set-up: dose 10 mg/kg, route intravenous; details: in vivo, 336 h

COc1cc2c(c(OC)c1OC)-c1ccc(SC)c(=O)cc1[C@@H](NC(=O)C1CC1C)CC2 (stereo partly specified)
Toxic: Activity (Mus musculus [1]) | Activity (Mus musculus [2]) | Activity (Mus musculus [3])

COc1cc(C/C=C/c2ccc(OC)c(=O)cc2)cc(OC)c1OC
inactive: inhibition (B-cell [4]) | inhibition (T-cell [5])

COc1ccc(-c2ccc(SC)c(=O)cc2)c(OC)c1OC
active: inhibition (B-cell [4]) | inhibition (T-cell [5])

COc1ccc(C/C=C/c2ccc(OC)c(=O)cc2)c(OC)c1OC
inactive: inhibition (B-cell [4]) | inhibition (T-cell [5])

COc1cc2c(c(OC)c1OC)-c1ccc(SC)c(=O)cc1CCC2
inactive: inhibition (Macrophage)
Non-toxic: Activity (Mus musculus [6]) | Activity (Mus musculus [7]) | Activity (Mus musculus [8]) | Activity (Mus musculus [1]) | Activity (Mus musculus [10]) | Activity (Mus musculus [12]) | Activity (Mus musculus [13]) | Activity (Mus musculus [14]) | Activity (Mus musculus [15]) | Activity (Mus musculus [2]) | Activity (Mus musculus [16]) | Activity (Mus musculus [3]) | Activity (Mus musculus [19]) | Activity (Mus musculus [20]) | Activity [22] | Activity (Mus musculus [23]) | Activity (Mus musculus [24]) | Activity (Mus musculus [25]) | Activity (Mus musculus [26]) | Activity (Mus musculus [27]) | Activity (Mus musculus [28]) | Activity (Mus musculus [30]) | Activity (Mus musculus [32])
> 100 mg/kg: MLD (Mus musculus [17]) | MLD (Mus musculus [21])
active: inhibition (Mus musculus [9]) Dose-dependent effect | inhibition (Mus musculus [11]) Dose-dependent effect | inhibition (Dendritic cell) Dose-dependent effect | inhibition (T-cell [18]) Dose-dependent effect | Activity (Mus musculus [29]) Dose-dependent effect | inhibition (RAW264.7) | inhibition (B-cell [31]) Dose-dependent effect

COc1ccc(/C=C/c2ccc(OC)c(=O)cc2)c(OC)c1OC
inactive: inhibition (B-cell [4]) | inhibition (T-cell [5])

COc1ccc(-c2ccc(OC)c(=O)cc2)c(OC)c1OC
active: inhibition (B-cell [4]) | inhibition (T-cell [5])

COc1cc2c(c(OC)c1OC)-c1ccc(SC)c(=O)cc1C=CC2
active: inhibition (Mus musculus [9]) Dose-dependent effect | inhibition (Mus musculus [11]) Dose-dependent effect | inhibition (Dendritic cell) Dose-dependent effect | inhibition (T-cell [18]) Dose-dependent effect | Activity (Mus musculus [29]) Dose-dependent effect | inhibition (RAW264.7) | inhibition (B-cell [31]) Dose-dependent effect
> 100 mg/kg: MLD (Mus musculus [17]) | MLD (Mus musculus [21])
inactive: inhibition (Macrophage)
Non-toxic: Activity (Mus musculus [6]) | Activity (Mus musculus [7]) | Activity (Mus musculus [8]) | Activity (Mus musculus [1]) | Activity (Mus musculus [10]) | Activity (Mus musculus [12]) | Activity (Mus musculus [13]) | Activity (Mus musculus [14]) | Activity (Mus musculus [15]) | Activity (Mus musculus [2]) | Activity (Mus musculus [16]) | Activity (Mus musculus [3]) | Activity (Mus musculus [19]) | Activity (Mus musculus [20]) | Activity [22] | Activity (Mus musculus [23]) | Activity (Mus musculus [24]) | Activity (Mus musculus [25]) | Activity (Mus musculus [26]) | Activity (Mus musculus [27]) | Activity (Mus musculus [28]) | Activity (Mus musculus [30]) | Activity (Mus musculus [32])

COc1cc(/C=C/c2ccc(OC)c(=O)cc2)cc(OC)c1OC
inactive: inhibition (B-cell [4]) | inhibition (T-cell [5])
